SMILES strings stand for the structures.

Here are results for three compounds from paper PMC3853091, “Antiproliferative effects of lanreotide autogel in patients with progressive, well-differentiated neuroendocrine tumours: a Spanish, multicentre, open-label, single arm phase II study” (BMC Cancer, 2013).

In data set [1] the test system is advanced pancreatic NET. Particulars: patients with advanced pancreatic NET; cited from earlier work. An excerpt:
Other treatment modalities that have shown promise as antiproliferative agents for advanced NET include mTOR or tyrosine kinase inhibitors. […] The combination of everolimus and octreotide LAR also stabilised tumour growth in patients with carcinoid NET [32].

A short description of data set [2]: Lanreotide trough serum levels (validated RIA with 125I-labelled lanreotide). In kind it is in vivo, human (patients). As to conditions: human, subcutaneous, mean ± SD. Here is the method: Efficacy (radiological, biochemical and clinical) and pharmacokinetic (PK) assessments were performed every 12 weeks and at the final study evaluation, 28 (±5) days after the final lanreotide dose. AEs and concomitant treatments were recorded at each 4-weekly treatment visit and at the final evaluation.
(§1) Safety analyses included AEs (coded using the Medical Dictionary for Regulatory Activities [MedDRA] version 11.1), vital signs, and serum haematology and biochemistry. Blood samples for analysis of lanreotide trough serum levels and, if applicable, for evaluation of the presence and specificity of anti-lanreotide antibodies were collected at screening and at weeks 8, 20, 32, 44, 56, 68 and 92, just before drug administration.
(§2) Tumour biomarkers, serum lanreotide concentrations and anti-lanreotide antibodies were analysed in a central laboratory. Serum CgA levels were determined using a radioimmunoassay (RIA) with coefficients of variation (CVs) of 6–10% (Cisbio International, Gif-sur-Yvette, France), and urinary 5-HIAA levels were measured using high-performance liquid chromatography with CVs of 4–6% (Bio-rad Laboratories GmbH, München, Germany). Circulating lanreotide concentrations were measured using a validated RIA with [^125I]-labelled lanreotide as a competitor for the quantification of lanreotide. During assay validation, the lower limit of quantification for lanreotide was 0.078 ng/mL and CVs were 2.3–13.6%. Anti-lanreotide antibodies were detected using a radioimmunoprecipitation assay (RIPA) with […] for immune-complex precipitation and [^125I]-labelled lanreotide as the tracer. Results were expressed as the percentage of precipitation. During validation, the assay sensitivity was 1/3,200,000 using a rabbit polyclonal anti-lanreotide antibody and intra- and inter-assay precision values were <5.7% and <5.3%, respectively. The screening assay cutpoint was determined as the 95th percentile of the distribution obtained with pre-treatment samples from 22 patients from the study. […]

Data set [3] in a line: Anti-lanreotide antibodies (radioimmunoprecipitation assay with confirmatory competition). In kind it is in vivo, human (patients). Particulars: RIPA.
Text: as §1
as §2, with “precipitation.” for “precipitation. During validation, the assay sensitivity was 1/3,200,000 using a rabbit polyclonal anti-lanreotide antibody and intra- and inter-assay precision values were <5.7% and <5.3%, respectively. The screening assay cutpoint was determined as the 95th percentile of the distribution obtained with pre-treatment samples from 22 patients from the study.”

As for `CO[C@H]1C[C@@H]2CC[C@@H](C)[C@@](O)(O2)C(=O)C(=O)N2CCCC[C@H]2C(=O)O[C@H]([C@H](C)C[C@@H]2CC[C@@H](OCCO)[C@H](OC)C2)CC(=O)[C@H](C)/C=C(\C)[C@@H](O)[C@@H](OC)C(=O)[C@H](C)C[C@H](C)/C=C/C=C/C=C/1C` [everolimus], the PFS in data set [1] is recorded as 11.0 months.

Regarding `CC(C)[C@@H]1NC(=O)[C@H](CCCCN)NC(=O)[C@@H](Cc2c[nH]c3ccccc23)NC(=O)[C@H](Cc2ccc(O)cc2)NC(=O)[C@@H](NC(=O)[C@H](N)Cc2ccc3ccccc3c2)CSSC[C@@H](C(=O)N[C@H](C(N)=O)[C@@H](C)O)NC1=O` [lanreotide], in data set [2] (week 20, after five injections of 120 mg every 28 days, n = 27, read-out: Steady-state trough serum lanreotide level), the level at 3360 h was determined as 5.2 ± 2 ng/mL. Moreover, the level at 5376 h in data set [2] (week 32, 120 mg every 28 days, read-out: Mean trough serum lanreotide level (maximum)) was 6 ± 2.9 ng/mL. Further, the level at 15456 h in data set [2] (week 92, 120 mg every 28 days, read-out: Mean trough serum lanreotide concentration) was found to be 5.3 ± 2 ng/mL. Further, in data set [3] (assessments after week 8, two patients, one of them temporarily), the “Patients with anti-lanreotide antibodies detected” value is 7%. Further, in data set [3] (week 8, all 25 patients tested), the “Anti-lanreotide antibodies in serum” value was “negative”.

`CCN(CC)CCNC(=O)c1c(C)[nH]c(/C=C2\C(=O)Nc3ccc(F)cc32)c1C` [sunitinib]: the PFS in data set [1] is 11.4 months.
